The values below come from ChEMBL document CHEMBL4152189, “Incorporation of nitric oxide donor into 1,3-dioxyxanthones leads to synergistic anticancer activity” (Eur J Med Chem, 2018).

Test [1] concerns HepG2. The experiment in a line: Growth inhibition of human HepG2 cells after 24 hrs by MTT assay. In kind it is functional, cell-based. The settings on record: HepG2, 24 h. In general terms: Tetrazolium dyes change colour on reduction, which living cells bring about.
A further test deals with MDA-MB-231. The experiment in a line: Growth inhibition of human MDA-MB-231 cells after 24 hrs by MTT assay. In kind it is functional, cell-based. The settings on record: MDA-MB-231, 24 h.
For another test, the system named is MCF7. The test can be described thus: Growth inhibition of human MCF7 cells after 24 hrs by MTT assay. Format: functional, cell-based. The note with it: MCF7, 24 h.
Test [2] concerns HepG2. The experiment in a line: Induction of NO generation in human HepG2 cells assessed as nitrite levels at 0.66 uM after 1 hr by Griess assay (reference value: 12.9 +/- 1.5 uM). Format: functional. On the technique in general: Griess reagent forms a coloured azo dye with nitrite.
Test [3] deals with HepG2. The experiment in a line: Induction of NO generation in human HepG2 cells assessed as nitrite levels at 0.66 uM after 3 hrs by Griess assay (reference value: 12.8 +/- 1.5 uM). Format: functional.
Test [4] relates to HepG2. The experiment in a line: Induction of NO generation in human HepG2 cells assessed as nitrite levels at 0.66 uM after 6 hrs by Griess assay (reference value: 12.6 +/- 1.1 uM). Format: functional.
In test [5] the test system is HepG2. The experiment in a line: Induction of NO generation in human HepG2 cells assessed as nitrite levels at 0.66 uM after 12 hrs by Griess assay (reference value: 12.7 +/- 1.8 uM). In kind it is functional.
Test [6] relates to HepG2. The test can be described thus: Induction of NO generation in human HepG2 cells assessed as nitrite levels at 0.66 uM after 24 hrs by Griess assay (reference value: 12.8 +/- 1.7 uM). In kind it is functional.
In test [7] the test system is HepG2. The test can be described thus: Induction of NO generation in human HepG2 cells assessed as nitrite levels at 0.66 uM after 48 hrs by Griess assay (reference value: 12.8 +/- 1.7 uM). In kind it is functional.
Test [8] deals with HepG2. The test can be described thus: Induction of NO generation in human HepG2 cells assessed as nitrite levels at 0.66 uM after 60 hrs by Griess assay (reference value: 12.8 +/- 1.5 uM). In kind it is functional.
The subject of test [9] is L02. The experiment in a line: Induction of NO generation in human HL-7702 cells assessed as nitrite levels at 0.66 uM after 1 hr by Griess assay (reference value: 11.6 +/- 1.1 uM). Format: functional.
Test [10] concerns L02. The test can be described thus: Induction of NO generation in human HL-7702 cells assessed as nitrite levels at 0.66 uM after 3 hrs by Griess assay (reference value: 11.6 +/- 1.2 uM). In kind it is functional.
Test [11] concerns L02. The experiment in a line: Induction of NO generation in human HL-7702 cells assessed as nitrite levels at 0.66 uM after 6 hrs by Griess assay (reference value: 11.8 +/- 1.1 uM). Format: functional.
In test [12] the test system is L02. The experiment in a line: Induction of NO generation in human HL-7702 cells assessed as nitrite levels at 0.66 uM after 12 hrs by Griess assay (reference value: 11.8 +/- 1.2 uM). Format: functional.
For test [13], the system named is L02. The experiment in a line: Induction of NO generation in human HL-7702 cells assessed as nitrite levels at 0.66 uM after 24 hrs by Griess assay (reference value: 11.6 +/- 1.1 uM). Format: functional.
In test [14] the test system is L02. The test can be described thus: Induction of NO generation in human HL-7702 cells assessed as nitrite levels at 0.66 uM after 48 hrs by Griess assay (reference value: 11.6 +/- 1.1 uM). Format: functional.
Test [15] deals with L02. The test can be described thus: Induction of NO generation in human HL-7702 cells assessed as nitrite levels at 0.66 uM after 60 hrs by Griess assay (reference value: 11.8 +/- 1.3 uM). Format: functional.

Broadly, the IC50 is the point on the concentration scale where inhibition reaches its midpoint. Read a low IC50 as greater potency in that assay. On to `O=[N+]([O-])OCCCCCO`, for which the IC50 with HepG2 [1] was 72.8 µM; in the test on MDA-MB-231, 140 µM; with MCF7 it was 102 µM. Further, the Activity in the test with HepG2 [2] stood at 16.2 µM; with HepG2 [3] it was 18.4 µM; with HepG2 [4], 23.3 µM; in the test on HepG2 [5], 26 µM; in the test on HepG2 [6], 29.2 µM; with HepG2 [7] it was 24.6 µM. For the same molecule, the Activity in the test with HepG2 [8] was 17.1 µM; with L02 [9], 13.5 µM; in the test on L02 [10], 13.8 µM; with L02 [11], 16 µM; with L02 [12], 17.5 µM; with L02 [13], 14.1 µM. In addition, the Activity in the test on L02 [14] is 13.4 µM; in the test with L02 [15], 13.3 µM.
As to `O=c1c2cc(Cl)ccc2oc2cc(OCCO[N+](=O)[O-])cc(O)c12`, the IC50 stood at 43.1 µM with HepG2 [1], 33.3 µM in the test with MDA-MB-231 and 74.3 µM in the test on MCF7.
The corresponding values for `COc1cc2oc3cc(O)cc(O)c3c(=O)c2cc1OC` are 123 µM, over 200 µM and over 200 µM.
In the same order, the values of `O=c1c2ccccc2oc2cc(OCCCCCCCO[N+](=O)[O-])cc(O)c12` are 5.24 µM, 43.5 µM and 153 µM.
